Assay results: US12139488B2, “Pyrido[3,2-d]pyrimidine compounds uses thereof for treating a proliferative disease” (Universite de Montreal, priority 2021, dated 2024)
Like-named read-outs stand apart in the source and are kept apart here.

Experiments:
Assay type in all cases: cell-based, human
[1] = test system: pERK in SW480 cells (KRAS G12D); assay: Phospho-ERK inhibition (AlphaLISA), SW480; details: for SW480 pERK % Ymin: value in parentheses
Method: (§1) All cancer cell lines (A375, A101D, A2058, RKO, HT29 SK-MEL 30, IPC298, HepG2, HCT-116, Lovo, SWV620, SW480, NCI-H358, NCI-H2122, Calu-6, NCIH2087, NCIH1755, NCIH1666 and Mewo) were obtained from ATCC and cultured in RPMI-1640 medium (Gibco) supplemented with 5% heat inactivated fetal bovine serum (FBS, Wisent) at 37° C. under 5% CO2. Cells were maintained in T175 flasks (Greiner). They were passaged by removing the culture medium, washing once in 10 mL of room temperature Phosphate Buffered Saline (PBS; Wisent) and incubating at 37° C. with 2 mL of 0.05% Trypsin (Thermo-Fisher). Trypsin was then inactivated by adding complete growth medium and the cells were then replated in a T175 culture dish at the appropriate dilution. All cell lines were routinely tested for mycoplasma contamination. Tissue type and mutational status of each cell line can be found in Table B.
(§2) AlphaLISA® SureFire® Ultra™ p-ERK 1/2 (Thr202/Tyr204) analysis was conducted on cells plated in 100 μL of complete RPMI-1640 growth medium in 96-well flat-bottomed transparent dishes (Costar) at a density indicated in Table C. Cells were maintained overnight at 37° C. under 5% CO2 before treatment with compounds' dilution series for one hour. The cell density in cells/cm^2 corresponds to cell number divided by the area of one well of a 96-well plate ([…]).
(§3) In a dilution series 100 μL/well of test substance dilution prepared in complete RPMI-1640 growth media was added to the cells. The dilution series is selected so that ten concentrations cover a range from 10 μM to 0.33 nM. If necessary the initial concentration of 10 μM is increased to 100 μM or lowered to 1 μM (as in the case of A375 and H1666 cells, which are generally more sensitive to the compounds) and further dilution is carried out accordingly. The final concentration of DMSO in the assay is set at 0.5%.
(§4) After treatment, media was removed and cells were lysed in 50 μL of 1× AlphaScreen Ultra Lysis Buffer (Perkin Elmer). The AlphaLISA® SureFire® Ultra™ p-ERK 1/2 (Thr202/Tyr2O4) (PerkinElmer) reactions were performed with 5 μL of cell lysate according to the manufacturer's specifications in 384-well proxyplates (Perkin Elmer) followed by overnight incubation of the reactions at room temperature in a humidified chamber. After completion of the reactions, the signals were recorded on an EnVision plate reader (Perkin Elmer) using built in AlphaLISA® settings.
(§5) The effect of each compound dilution on the pERK signal was expressed in % inhibition and calculated as follows. An internal 100% inhibition control ([…] trametinib, cat #HY-10999; MedChem Express; CAS #871700-17-3) was included in each plate and used as a measure of pERK background. First, the value obtained for trametinib was subtracted from each data point. The average of DMSO (vehicle) controls (set as 0% inhibition) was established and used to calculate % inhibition: % inhibition=100*(1-((pERK signalcompound)/(pERK signalDMSO)))
(§6) The ability of each compound to inhibit pERK signal was expressed as an IC50 value obtained by plotting the inhibition values for each data point of a dilution series and fitting the obtained curves using a log(agonist) versus response-variable slope (four parameters) function using GraphPadPrism (V7.0) or Dotmatics Screening Ultra platform.
(§7) When present, paradoxical pERK induction is inferred from the negative % inhibition values observed in the pERK IC50 curves of a compound.

[2] = test system: pERK in NCI-H358 cells (KRAS-G12C); assay: Phospho-ERK inhibition (AlphaLISA), NCI-H358; details: for IC50: NCI-H358; for NCI-H358 pERK % Ymin: NCI-H358, value in parentheses
Method: as §1, §2, §3, §4, §5, §6, §7

[3] = test system: NCIH2087 cells (BRAF L597V; KRAS Q61K); assay: Proliferation inhibition (CellTiter-Glo), NCIH2087; details: NCIH2087, 3 days, read-out: NCIH2087 Prolif. EC50
Method: as §1
(§8) CellTiter-Glo® viability analysis was conducted on cells plated in 100 μL of complete RPMI-1640 growth medium in 96-well flat-bottomed white opaque plates (Greiner or Croning) at a density indicated in Table E (for each CCL, number of cells plated per well of a 96-well plate to perform the CellTiter-Glo® cell viability assay). The cell density in cells/cm^2 would correspond to cell number divided by the area of one well of a 96-well plate (0.32 cm^2). […]
(§9) After 3 days of incubation, the growth media were removed by aspiration and 60 μL of diluted CellTiter-Glo® reagent (10 μL CellTiter-Glo® reagent+50 μL of PBS) was added to each well. […] Luminescence signals were then acquired on a Synergy Neo2 plate reader (Biotek).
(§10) The effect of each compound dilution on the proliferation of cancer cell lines was expressed in % inhibition and calculated as follows. […]
as §6, with “proliferation” for “pERK signal”, “a EC50” for “an IC50”, “effect” for “inhibition”

Calu-6 cells (KRAS Q61K) = assay: Proliferation inhibition (CellTiter-Glo), Calu-6; details: Calu6, 3 days, read-out: Calu6 Prolif. EC50
Method: as §1, §8, §9, §10
as §6, with “proliferation” for “pERK signal”, “a EC50” for “an IC50”, “effect” for “inhibition”

[4] = test system: pERK in NCI-H2122 cells (KRAS-G12C); assay: Phospho-ERK inhibition (AlphaLISA), NCI-H2122; details: for IC50: NCI-H2122; for NCI-H2122 pERK % Ymin: NCI-H2122, value in parentheses
Method: as §1, §2, §3, §4, §5, §6, §7

HepG2 cells (NRAS-Q61L) = assay: Proliferation inhibition (CellTiter-Glo), HepG2; details: HepG2, 3 days, read-out: HepG2 Prolif. EC50
Method: as §1, §8, §9, §10
as §6, with “proliferation” for “pERK signal”, “a EC50” for “an IC50”, “effect” for “inhibition”

Structure (SMILES)	IC50 ([1]; Homo sapiens, SW480, Table D) [nM]	SW480 pERK % Ymin ([1]; SW480, Table D) [%]	IC50 ([2]; Homo sapiens) [nM]	NCI-H358 pERK % Ymin [2] [%]	EC50 ([3]; Homo sapiens, NCI-H2087, 72 h) [nM]	EC50 (Calu-6 cells (KRAS Q61K); Homo sapiens, Calu-6, 72 h) [nM]	IC50 ([4]; Homo sapiens) [nM]	NCI-H2122 pERK % Ymin [4] [%]	EC50 (HepG2 cells (NRAS-Q61L); Homo sapiens, 72 h) [nM]	IC50 ([1]; SW480, Table D) [nM]	SW480 pERK Ymin % ([1]; SW480 cells, Ymin in brackets) [%]	IC50 ([1]; SW480 cells, class symbol before the bracket) [nM]	IC50 [2] [nM]	EC50 [3] [nM]	EC50 (Calu-6 cells (KRAS Q61K)) [nM]	IC50 [4] [nM]	EC50 (HepG2 cells (NRAS-Q61L)) [nM]	IC50 ([1]; SW480 cells, class symbol) [nM]
Cc1ccc2c(Nc3cccc(Cl)c3F)nccc2c1NC(=O)c1csc2c(N)ncnc12 [Belvarafenib, reference compound]	30 to 300	−100	30 to 300	−122	< 30	< 30	30 to 300	−9	< 30	–	–	–	–	–	–	–	–	–
Nc1cccc2c1ncn2-c1ccc2ncnc(Nc3c(F)ccc(NS(=O)(=O)c4cccc(Cl)c4Cl)c3F)c2n1 [Example 99]	–	−7	–	11	–	–	–	−3	–	30 to 300	−0.3	< 500	30 to 300	300 to 3000	300 to 3000	30 to 300	< 30	–
CC1(O)CCN(c2cccc3c2ncn3-c2ccc3ncnc(Nc4c(F)ccc(NS(=O)(=O)c5cccc(Cl)c5Cl)c4F)c3n2)CC1 [Example 524]	–	0	–	−13	–	–	–	13	–	30 to 300	–	–	30 to 300	< 30	300 to 3000	30 to 300	< 30	< 500
